Among the data in patent US20080004302A1, “Novel Compounds” (ASTRAZENECA AB, priority 2006, published 2008) are IC50 values, retold here.

The target of one data set is T1, human IGF1R (Homo sapiens, UniProt P08069).
T1 construct: expressed in transfected cells; host or cells: R+ cells (R- mouse fibroblasts transfected with human IGF1R)
In words: Inhibition of insulin-like growth factor-1 receptor phosphorylation in R+ cells. In kind it is cell-based. Particulars: 30 nM IGF1, read-out: IGF cell class.

The target in data set [1] is T2, human cytochrome P450 (CYP) 3A4 (Homo sapiens, UniProt P08684).
T2 construct: made in house; host or cells: yeast (microsomal fraction)
T2 sequence (P08684 whole entry): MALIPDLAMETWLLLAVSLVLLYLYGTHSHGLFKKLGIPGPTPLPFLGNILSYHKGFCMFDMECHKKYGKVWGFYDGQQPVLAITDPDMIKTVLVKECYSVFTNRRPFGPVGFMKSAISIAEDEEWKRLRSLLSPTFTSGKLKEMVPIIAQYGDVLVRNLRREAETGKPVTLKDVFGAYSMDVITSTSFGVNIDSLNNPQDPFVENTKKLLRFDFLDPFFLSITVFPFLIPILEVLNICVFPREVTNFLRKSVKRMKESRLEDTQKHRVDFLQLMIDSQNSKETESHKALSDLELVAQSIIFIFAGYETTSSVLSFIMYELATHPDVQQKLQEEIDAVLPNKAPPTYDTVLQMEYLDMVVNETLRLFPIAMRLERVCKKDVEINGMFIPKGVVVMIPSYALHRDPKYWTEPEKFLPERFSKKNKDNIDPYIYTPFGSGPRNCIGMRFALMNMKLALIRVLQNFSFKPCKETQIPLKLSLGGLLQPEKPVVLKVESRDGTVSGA
In words: Cytochrome P450 inhibition assay, 3A4. In kind it is in vitro ADME. Particulars: test concentrations 0.1-10 μM.
Description: (§1) The inhibitory potential (IC50) of test compounds against 5 human cytochrome P450 (CYP) isoforms (IA2, 2C9, 2C19, 3A4 and 2D6) was assessed using an automated fluorescent end point in vitro assay modified from Crespi (Crespi and Stresser, 2000). Microsomal subcellular fractions prepared from Yeast cell lines expressing each human CYP isoform were used as an enzyme source in this assay. The activity of the 5 major human CYPs was determined from the biotransformation of a number of coumarin substrates to fluorescent metabolites, in the presence of NADPH. […] Stock solutions of each CYP, with its respective substrate, were prepared in phosphate buffer pH7.4 (see Table 1) and 178 μl was added to the well of a black solid, flat bottom, 300 μl 96 well microtitre plate (Coming Costar). […] After pre-incubating at 37° C. for 5 min the reactions were started with addition of NADPH (20 μl, concentration shown in Table 1). The final solvent content in each incubation was <=2% (1% from the test compound and a maximum of 1% from the substrate). The appropriate solvent controls and substrate blanks were included in each experiment to assess control activity and identify any inherent fluorescence due to the test compounds. In addition, known inhibitors of each CYP were included as positive controls (see Table 3 for inhibitor concentrations and expected IC50 ranges). The reactions were stopped at defined timepoints (see Table 1) by quenching with 100 μl of solvent (acetonitrile:0.5M Tris buffer 80:20 v/v). The plates were read on a fluorimeter (Spectrafluor Plus) at the appropriate excitation and emission wavelengths (listed in Table 2) and the percent activity, corrected for control, was plotted against the test compound concentration.

Data set [2] has as its target T3, human cytochrome P450 (CYP) 1A2 (Homo sapiens, UniProt P05177).
T3 sequence (P05177 1-516): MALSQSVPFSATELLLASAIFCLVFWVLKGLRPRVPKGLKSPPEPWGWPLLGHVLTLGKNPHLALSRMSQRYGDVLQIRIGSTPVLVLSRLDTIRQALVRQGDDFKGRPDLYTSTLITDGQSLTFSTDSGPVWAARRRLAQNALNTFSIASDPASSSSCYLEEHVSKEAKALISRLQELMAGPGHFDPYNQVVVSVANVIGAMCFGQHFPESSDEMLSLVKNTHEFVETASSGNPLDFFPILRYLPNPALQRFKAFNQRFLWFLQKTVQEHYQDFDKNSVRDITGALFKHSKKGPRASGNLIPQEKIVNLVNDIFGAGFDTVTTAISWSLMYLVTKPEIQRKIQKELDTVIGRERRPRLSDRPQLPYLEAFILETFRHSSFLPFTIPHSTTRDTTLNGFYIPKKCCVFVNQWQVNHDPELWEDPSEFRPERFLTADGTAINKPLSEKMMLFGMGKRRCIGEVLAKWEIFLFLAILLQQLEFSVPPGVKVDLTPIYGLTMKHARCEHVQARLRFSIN
Description: as §1

In data set [3] the target is human cytochrome P450 (CYP) 2C9 (Homo sapiens, UniProt P11712).
Sequence of human cytochrome P450 (CYP) 2C9 (P11712 whole entry): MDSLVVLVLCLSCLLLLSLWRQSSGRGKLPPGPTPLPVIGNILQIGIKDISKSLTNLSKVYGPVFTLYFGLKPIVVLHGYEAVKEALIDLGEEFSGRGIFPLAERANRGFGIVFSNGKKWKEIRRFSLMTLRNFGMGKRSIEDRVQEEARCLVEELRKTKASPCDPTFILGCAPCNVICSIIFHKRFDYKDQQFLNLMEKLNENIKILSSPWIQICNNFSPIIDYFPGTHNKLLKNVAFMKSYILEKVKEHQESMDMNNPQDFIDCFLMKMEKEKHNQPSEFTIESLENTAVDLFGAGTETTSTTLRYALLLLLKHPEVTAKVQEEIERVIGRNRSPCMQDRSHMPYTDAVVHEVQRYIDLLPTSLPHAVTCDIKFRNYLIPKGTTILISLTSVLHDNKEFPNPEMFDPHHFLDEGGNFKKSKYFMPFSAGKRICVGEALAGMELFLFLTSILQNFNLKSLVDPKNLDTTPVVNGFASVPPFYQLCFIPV
Description: as §1
The target of data set [4] is human cytochrome P450 (CYP) 2C19 (Homo sapiens, UniProt P33261).
Sequence of human cytochrome P450 (CYP) 2C19 (P33261 whole entry): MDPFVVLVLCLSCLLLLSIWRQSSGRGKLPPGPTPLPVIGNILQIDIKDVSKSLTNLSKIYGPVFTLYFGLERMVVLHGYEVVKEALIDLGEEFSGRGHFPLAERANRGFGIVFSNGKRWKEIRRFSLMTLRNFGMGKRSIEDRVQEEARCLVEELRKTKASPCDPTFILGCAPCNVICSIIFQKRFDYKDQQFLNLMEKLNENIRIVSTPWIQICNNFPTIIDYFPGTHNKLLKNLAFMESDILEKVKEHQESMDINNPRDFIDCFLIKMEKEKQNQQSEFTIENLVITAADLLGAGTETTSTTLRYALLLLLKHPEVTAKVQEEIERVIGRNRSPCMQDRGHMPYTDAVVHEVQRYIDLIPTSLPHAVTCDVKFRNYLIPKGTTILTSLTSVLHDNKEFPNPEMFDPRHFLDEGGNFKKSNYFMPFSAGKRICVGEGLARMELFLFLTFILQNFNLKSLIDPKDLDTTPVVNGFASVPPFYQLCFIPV
Description: as §1
For another data set, the target named is CYP2D6 (Homo sapiens, UniProt P10635). In words: in vitro. Particulars: pH 7.4, probe coumarin substrate (not named).
Sequence of CYP2D6 (P10635 whole entry): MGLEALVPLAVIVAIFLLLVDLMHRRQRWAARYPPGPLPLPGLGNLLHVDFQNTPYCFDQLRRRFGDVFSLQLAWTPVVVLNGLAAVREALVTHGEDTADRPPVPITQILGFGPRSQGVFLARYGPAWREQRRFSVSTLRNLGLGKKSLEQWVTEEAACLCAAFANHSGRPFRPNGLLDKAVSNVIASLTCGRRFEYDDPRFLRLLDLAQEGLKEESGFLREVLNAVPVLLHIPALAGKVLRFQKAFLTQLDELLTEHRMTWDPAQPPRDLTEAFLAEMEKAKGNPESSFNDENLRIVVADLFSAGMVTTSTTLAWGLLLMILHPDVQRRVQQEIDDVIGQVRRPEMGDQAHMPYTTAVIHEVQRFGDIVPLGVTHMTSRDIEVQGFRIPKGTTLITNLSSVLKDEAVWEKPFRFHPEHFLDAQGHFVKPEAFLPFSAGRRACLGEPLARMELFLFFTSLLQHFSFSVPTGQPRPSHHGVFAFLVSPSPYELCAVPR
The subject of the next data set is Erk phosphorylation. In words: Growth factor (bFGF) stimulated Erk phosphorylation in NIH 3T3 cells. Conditions: Mus musculus, NIH3T3.
A further data set deals with T4, FGFR kinase domain (Homo sapiens, UniProt P11362, C488A/C584S).
T4 construct: FGFR kinase domain (amino acids 458-765, C488A, C584S) N-terminally fused to a His6-tag; made in house
T4 sequence (P11362 458-765 C488A/C584S): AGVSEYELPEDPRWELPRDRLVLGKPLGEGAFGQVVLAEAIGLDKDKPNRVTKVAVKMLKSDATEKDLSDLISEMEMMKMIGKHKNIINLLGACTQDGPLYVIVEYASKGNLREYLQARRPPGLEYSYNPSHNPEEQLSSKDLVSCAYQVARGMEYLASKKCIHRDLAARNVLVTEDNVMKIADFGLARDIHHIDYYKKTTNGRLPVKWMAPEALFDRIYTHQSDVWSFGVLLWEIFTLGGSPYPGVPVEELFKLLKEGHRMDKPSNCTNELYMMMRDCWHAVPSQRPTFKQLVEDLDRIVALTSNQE
In words: Kinase assay (ELISA) for inhibition of FGFR activity. The class given is biochemical. The protocol:
To determine inhibition of FGFR activity, kinase assays were conducted using ELISA (Enzyme-Linked Immunosorbent Assay) technology.
Kinase activity assays were performed in 384-well polypropylene plates (Matrix, 4311) with a total volume of 40 μl in each well. Each well was coated with 2 μg of polyEAY substrate (Sigma, P3899) at 4° C. overnight. The plates were then washed once with 100 μl PBS and once with 100 μl 50 mM HEPES (pH 7.4) prior to the addition of the kinase assay reagents. […] Various concentrations of test compounds were each added in 5% (v/v) DMSO to yield a final assay DMSO concentration of 1.25% (v/v). The kinase reactions were incubated at room temperature for 45 minutes and stopped by washing the plate three times with 100 μl PBS plus 0.05% Tween. […] Following this, the plates were then washed repeatedly with 100 μl PBS plus 0.05% Tween to remove all traces of the antibody solution. 40 μl of 50 μg/ml 3,3′,5,5′-Tetramethylbenzidine (Sigma, T2885), 0.05M phosphate-citrate buffer, containing 0.03% sodium perborate was added to each well and the plates incubated at room temperature for twelve minutes. The colour reaction was stopped by the addition of 20 μl 2M H2SO4 and the plates read at 450 nm on a Spectrafluor Plus (Tecan).

Another data set addresses T5, CYP3A4 (Homo sapiens, UniProt P08684).
T5 construct: made in house; host or cells: yeast (microsomal fraction)
The data set can be described thus: Cytochrome P450 inhibition assay, 3A4. In kind it is in vitro ADME. Particulars: human, pH 7.4, probe coumarin substrate (not named); test concentrations 0.1-10 μM.

Where [5] appears, read: comparative testing, read-out: Fgf Ic50.

SMILES strings stand for the structures. Where two headings read alike, the source gives them in different places.

T1 sequence (P08069 31-1367): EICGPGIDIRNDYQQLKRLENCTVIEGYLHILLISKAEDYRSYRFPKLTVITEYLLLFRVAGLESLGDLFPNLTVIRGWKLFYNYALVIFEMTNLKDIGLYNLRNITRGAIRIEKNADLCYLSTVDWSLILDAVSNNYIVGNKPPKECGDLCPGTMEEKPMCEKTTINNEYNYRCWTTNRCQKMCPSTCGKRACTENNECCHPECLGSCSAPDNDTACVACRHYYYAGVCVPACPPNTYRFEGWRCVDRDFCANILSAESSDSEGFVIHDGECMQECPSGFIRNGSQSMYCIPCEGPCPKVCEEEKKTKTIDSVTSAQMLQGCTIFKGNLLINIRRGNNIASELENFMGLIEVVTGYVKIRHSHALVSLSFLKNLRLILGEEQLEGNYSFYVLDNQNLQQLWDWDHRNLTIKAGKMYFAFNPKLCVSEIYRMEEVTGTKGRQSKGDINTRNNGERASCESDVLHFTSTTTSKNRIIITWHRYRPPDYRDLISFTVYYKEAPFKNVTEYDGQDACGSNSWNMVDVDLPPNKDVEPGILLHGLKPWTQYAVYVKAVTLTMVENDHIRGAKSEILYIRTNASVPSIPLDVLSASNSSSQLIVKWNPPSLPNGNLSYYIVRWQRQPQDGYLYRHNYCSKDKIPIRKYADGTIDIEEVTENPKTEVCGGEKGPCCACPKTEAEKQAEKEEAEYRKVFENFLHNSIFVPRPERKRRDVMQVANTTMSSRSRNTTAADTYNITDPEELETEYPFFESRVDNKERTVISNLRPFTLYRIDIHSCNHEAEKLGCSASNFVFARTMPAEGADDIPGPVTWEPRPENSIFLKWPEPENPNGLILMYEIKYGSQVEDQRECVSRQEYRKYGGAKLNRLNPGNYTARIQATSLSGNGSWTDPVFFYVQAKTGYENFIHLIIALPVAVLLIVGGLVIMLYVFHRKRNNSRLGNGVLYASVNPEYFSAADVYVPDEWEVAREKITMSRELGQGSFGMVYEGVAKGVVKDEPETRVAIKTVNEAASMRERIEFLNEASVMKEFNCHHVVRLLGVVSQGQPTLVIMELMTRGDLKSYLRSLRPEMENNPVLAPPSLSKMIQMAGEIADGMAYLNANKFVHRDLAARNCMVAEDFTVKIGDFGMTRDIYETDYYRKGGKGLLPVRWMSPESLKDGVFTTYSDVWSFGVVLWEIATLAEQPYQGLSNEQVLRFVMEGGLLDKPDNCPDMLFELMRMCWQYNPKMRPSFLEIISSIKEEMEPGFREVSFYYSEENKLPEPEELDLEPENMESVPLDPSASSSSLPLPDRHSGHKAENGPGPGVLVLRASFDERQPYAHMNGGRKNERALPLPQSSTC
T5 sequence (P08684 whole entry): as the sequence (P08684 whole entry) above
Description for CYP2D6: as §1
Description for CYP3A4: as §1

As for `Cc1cc(CNc2nccc(Nc3cc(C)[nH]n3)n2)on1` [Example 1, N-[(3-methylisoxazol-5-yl)methyl]-N′-(5-methyl-2H-pyrazol-3-yl)pyrimidine-2,4-diamine], the IC50 at human IGF1R was over 10 µM; in data set [1] it was 5.7 µM; in data set [2] it was over 10 µM; in data set [3], over 10 µM; in [4], over 10 µM; against CYP2D6, over 10 µM. Also, the IC50 in the data set on Erk phosphorylation was under 1 µM.

In the case of `CCCc1cc(Nc2nc(NCc3cc(C)no3)ncc2Br)n[nH]1` [Comparative Example (d), 5-bromo-N-[(3-methylisoxazol-5-yl)methyl]-N′-(5-propyl-2H-pyrazol-3-yl)pyrimidine-2,4-diamine], the IC50 is 0.09 µM at FGFR kinase domain (setting [5]); 0.37 µM in data set [1]; at most 0.1 µM in data set [2]; 3.08 µM in data set [3]; 2.88 µM in [4]; over 10 µM at CYP2D6.

Regarding `Cc1cc(Nc2nc(NCc3cc(C)no3)ncc2Br)[nH]n1` [Comparative Example (a), 5-bromo-N-[(3-methylisoxazol-5-yl)methyl]-N′-(5-methyl-2H-pyrazol-3-yl)pyrimidine-2,4-diamine], the IC50 at FGFR kinase domain (setting [5]) is 0.14 µM; in data set [1], 3.31 µM; in data set [2] it was 0.79 µM; in data set [3], over 10 µM; in data set [4], over 10 µM; against CYP2D6, over 10 µM.

In the case of `Cc1cc(CNc2nccc(Nc3cc(C4CC4)[nH]n3)n2)on1` [Example 9, N′-(5-cyclopropyl-2H-pyrazol-3-yl)-N-[(3-methyl-1,2-oxazol-5-yl)methyl]pyrimidine-2,4-diamine], the IC50 at FGFR kinase domain (FGFR inhibition tests, ELISA kinase assay, read-out: Activity class) is under 0.1 µM; at FGFR kinase domain (setting [5]) it was 0.04 µM; at human IGF1R it was 1 to 10 µM; against CYP3A4, over 10 µM; in [2], 2.19 µM; in data set [3] it was over 10 µM. Also, the IC50 (in data set [4]; against CYP2D6) was over 10 µM in each case.
